Experimental data from publication PMC11012124, “Synthesis of Novel Triazine-Based Chalcones and 8,9-dihydro-7H-pyrimido[4,5-b][1,4]diazepines as Potential Leads in the Search of Anticancer, Antibacterial and Antifungal Agents” (International Journal of Molecular Sciences, 2024).

How the values were obtained:
60 cancer cell lines = assay: NCI-60 one-dose screen (10 μM); type: cell-based; conditions: Homo sapiens; one dose of 10 μM, mean over 60 cancer cell lines; read-out: Mean Growth Percent (MGP)
Excerpt: Additionally, the mean of the growth percentages (MGP) of each compound against all the 60 cancer cell lines is also reported, which is used as one of the selection criteria to continue with tests at five concentration doses.

[1] = Hemolytic activity, spectrophotometric; type: cell-based, human; conditions: human, human red blood cells (huRBC), 5% hematocrit, 200 μg/mL, 37 °C
MOLT-4 = assay: cells; conditions: Homo sapiens, MOLT-4, 48 h; for CC50: read-out: LC50
RPMI-8226 = assay: cells; conditions: Homo sapiens, RPMI-8226, 48 h; for CC50: read-out: LC50
A549/ATCC = assay: cells; conditions: Homo sapiens, A549, 48 h; for CC50: read-out: LC50
EKVX = assay: cells; conditions: Homo sapiens, 48 h; for CC50: read-out: LC50
HOP-62 = assay: cells; conditions: Homo sapiens, HOP-62, 48 h; for CC50: read-out: LC50
NCI-H322M = assay: cells; conditions: Homo sapiens, 48 h; for CC50: read-out: LC50
NCI-H522 = assay: cells; conditions: Homo sapiens, NCI-H522, 48 h; for CC50: read-out: LC50
COLO 205 = assay: cells; conditions: Homo sapiens, COLO 205, 48 h; for CC50: read-out: LC50
HCC-2998 = assay: cells; conditions: Homo sapiens, HCC 2998, 48 h; for CC50: read-out: LC50
HCT-116 = assay: cells; conditions: Homo sapiens, HCT-116, 48 h; for CC50: read-out: LC50
HCT-15 = assay: cells; conditions: Homo sapiens, HCT-15, 48 h; for CC50: read-out: LC50
HT29 = assay: cells; conditions: Homo sapiens, HT-29, 48 h; for CC50: read-out: LC50
KM12 = assay: cells; conditions: Homo sapiens, KM12, 48 h; for CC50: read-out: LC50
SW-620 = assay: cells; conditions: Homo sapiens, SW-620, 48 h; for CC50: read-out: LC50
SF-539 = assay: cells; conditions: Homo sapiens, SF-539, 48 h; for CC50: read-out: LC50, SF-539, 48 h
SNB-19 = assay: cells; conditions: Homo sapiens, SNB-19, 48 h
SNB-75 = assay: cells; conditions: Homo sapiens, SNB-75, 48 h; for CC50: read-out: LC50
U251 = assay: cells; conditions: Homo sapiens, U-251, 48 h; for GI50: U251, 48 h; for CC50: read-out: LC50
MALME-3M = assay: cells; conditions: Homo sapiens, 48 h
M14 = assay: cells; conditions: Homo sapiens, M14, 48 h; for CC50: read-out: LC50
SK-MEL-28 = assay: cells; conditions: Homo sapiens, SK-MEL-28, 48 h; for CC50: read-out: LC50
UACC-62 = assay: cells; conditions: Homo sapiens, UACC-62, 48 h
OVCAR-8 = assay: cells; conditions: Homo sapiens, OVCAR-8, 48 h; for CC50: read-out: LC50
SK-OV-3 = assay: cells; conditions: Homo sapiens, SK-OV-3, 48 h; for CC50: read-out: LC50
ACHN = assay: cells; conditions: Homo sapiens, 48 h; for CC50: read-out: LC50
CAKI-1 = assay: cells; conditions: Homo sapiens, CAKI-1, 48 h; for CC50: read-out: LC50
RXF 393 = assay: cells; conditions: Homo sapiens, RXF 393, 48 h; for CC50: read-out: LC50
UO-31 = assay: cells; conditions: Homo sapiens, UO-31, 48 h; for CC50: read-out: LC50
PC-3 = assay: cells; conditions: Homo sapiens, PC-3, 48 h; for CC50: read-out: LC50
DU-145 = assay: cells; conditions: Homo sapiens, DU-145, 48 h; for CC50: read-out: LC50
MDA-MB-231/ATCC = assay: cells; conditions: Homo sapiens, MDA-MB-231, 48 h
HS 578T = assay: cells; conditions: Homo sapiens, 48 h; for CC50: read-out: LC50
BT-549 = assay: cells; conditions: Homo sapiens, BT-549, 48 h; for CC50: read-out: LC50
T-47D = assay: cells; conditions: Homo sapiens, T47D, 48 h; for CC50: read-out: LC50
MDA-MB-468 = assay: cells; conditions: Homo sapiens, MDA-MB-468, 48 h; for CC50: read-out: LC50

Cc1ccc(/C=C/C(=O)c2ccc(S(=O)(=O)NCCNc3nc(Nc4ccc(F)cc4)nc(N(C)C)n3)cc2)cc1 [24b]
activity at 10 µM (60 cancer cell lines): 16.5%
hemolysis at 24 h, 200 µg/mL [1]: 1.2%
GI50 (MOLT-4): 3.86 µM
CC50 (MOLT-4): > 100 µM
GI50 (RPMI-8226): 2.73 µM
CC50 (RPMI-8226): > 100 µM
GI50 (A549/ATCC): 10.5 µM
CC50 (A549/ATCC): 77.7 µM
GI50 (EKVX): 4.96 µM
CC50 (EKVX): 43.3 µM
GI50 (HOP-62): 15.3 µM
CC50 (HOP-62): 64.8 µM
GI50 (NCI-H322M): 11.8 µM
CC50 (NCI-H322M): 62.5 µM
GI50 (NCI-H522): 5.24 µM
CC50 (NCI-H522): 45.3 µM
GI50 (COLO 205): 6.51 µM
CC50 (COLO 205): 55.1 µM
GI50 (HCC-2998): 4.5 µM
CC50 (HCC-2998): 41 µM
GI50 (HCT-116): 1.75 µM
CC50 (HCT-116): 6.17 µM
GI50 (HCT-15): 3.92 µM
CC50 (HCT-15): 35.3 µM
GI50 (HT29): 2.38 µM
CC50 (HT29): 16.2 µM
GI50 (KM12): 5.41 µM
CC50 (KM12): 99.7 µM
GI50 (SW-620): 7.53 µM
CC50 (SW-620): 49.4 µM
GI50 (SF-539): 13 µM
CC50 (SF-539): 51.7 µM
GI50 (SNB-19): 11 µM
CC50 (SNB-19; read-out: LC50): 50.2 µM
GI50 (SNB-75): 7.59 µM
CC50 (SNB-75): > 100 µM
GI50 (U251): 11.6 µM
CC50 (U251): 58.7 µM
GI50 (MALME-3M): 16.4 µM
CC50 (MALME-3M; read-out: LC50): 60.9 µM
GI50 (M14): 5.91 µM
CC50 (M14): 49.2 µM
GI50 (SK-MEL-28): 11.3 µM
CC50 (SK-MEL-28): 49.6 µM
GI50 (UACC-62): 8.4 µM
CC50 (UACC-62; read-out: LC50): 47.1 µM
GI50 (OVCAR-8): 13 µM
CC50 (OVCAR-8): 56 µM
GI50 (SK-OV-3): 17 µM
CC50 (SK-OV-3): > 100 µM
GI50 (ACHN): 6.31 µM
CC50 (ACHN): 44.1 µM
GI50 (CAKI-1): 6.98 µM
CC50 (CAKI-1): 58 µM
GI50 (RXF 393): 4.98 µM
CC50 (RXF 393): 44.9 µM
GI50 (UO-31): 6.77 µM
CC50 (UO-31): 44.7 µM
GI50 (PC-3): 3.54 µM
CC50 (PC-3): 89.5 µM
GI50 (DU-145): 14 µM
CC50 (DU-145): 74.8 µM
GI50 (MDA-MB-231/ATCC): 6.56 µM
CC50 (MDA-MB-231/ATCC; read-out: LC50): 48 µM
GI50 (HS 578T): 10.7 µM
CC50 (HS 578T): > 100 µM
GI50 (BT-549): 15.7 µM
CC50 (BT-549): 57.8 µM
GI50 (T-47D): 3.86 µM
CC50 (T-47D): 52.7 µM
GI50 (MDA-MB-468): 4.66 µM
CC50 (MDA-MB-468): 43 µM

Nc1nc(N)c2c(n1)NC(c1ccc(F)cc1)CC(c1ccc(Nc3nc(NCCO)nc(Nc4ccc(Cl)cc4)n3)cc1)=N2 (centres unmarked) [33f]
activity at 10 µM (60 cancer cell lines): -3.41%
hemolysis at 24 h, 200 µg/mL [1]: 5%
GI50 (MOLT-4): 0.532 µM
CC50 (MOLT-4): > 100 µM
GI50 (RPMI-8226): 1.01 µM
CC50 (RPMI-8226): > 100 µM
GI50 (A549/ATCC): 3.12 µM
CC50 (A549/ATCC): > 100 µM
GI50 (EKVX): 1.66 µM
CC50 (EKVX): 24 µM
GI50 (HOP-62): 1.77 µM
CC50 (HOP-62): 11.7 µM
GI50 (NCI-H322M): 2.43 µM
CC50 (NCI-H322M): 33.5 µM
GI50 (NCI-H522): 1.43 µM
CC50 (NCI-H522): 6.16 µM
GI50 (COLO 205): 1.49 µM
CC50 (COLO 205): 5.8 µM
GI50 (HCC-2998): 1.61 µM
CC50 (HCC-2998): 5.78 µM
GI50 (HCT-116): 1.2 µM
CC50 (HCT-116): 5.23 µM
GI50 (HCT-15): 1.03 µM
CC50 (HCT-15): 7.87 µM
GI50 (HT29): 1.42 µM
CC50 (HT29): 7.01 µM
GI50 (KM12): 1.68 µM
CC50 (KM12): 8.22 µM
GI50 (SW-620): 1.6 µM
CC50 (SW-620): 6.68 µM
GI50 (SF-539): 1.56 µM
CC50 (SF-539): 6.36 µM
GI50 (SNB-19): 1.76 µM
GI50 (SNB-75): 3.35 µM
CC50 (SNB-75): 45.4 µM
GI50 (U251): 1.37 µM
CC50 (U251): 5.43 µM
GI50 (MALME-3M): 1.66 µM
GI50 (M14): 1.66 µM
CC50 (M14): 6.58 µM
GI50 (SK-MEL-28): 1.7 µM
CC50 (SK-MEL-28): 5.93 µM
GI50 (UACC-62): 1.96 µM
GI50 (OVCAR-8): 1.16 µM
CC50 (OVCAR-8): 6.81 µM
GI50 (SK-OV-3): 12.9 µM
CC50 (SK-OV-3): 50.5 µM
GI50 (ACHN): 3.22 µM
CC50 (ACHN): > 100 µM
GI50 (CAKI-1): 6.14 µM
CC50 (CAKI-1): > 100 µM
GI50 (RXF 393): 1.17 µM
CC50 (RXF 393): 5.9 µM
GI50 (UO-31): 3.07 µM
CC50 (UO-31): > 100 µM
GI50 (PC-3): 1.72 µM
CC50 (PC-3): > 100 µM
GI50 (DU-145): 1.75 µM
CC50 (DU-145): 7 µM
GI50 (MDA-MB-231/ATCC): 1.78 µM
GI50 (HS 578T): 2.04 µM
CC50 (HS 578T): > 100 µM
GI50 (BT-549): 1.56 µM
CC50 (BT-549): 6.47 µM
GI50 (T-47D): 1.27 µM
CC50 (T-47D): 8.09 µM
GI50 (MDA-MB-468): 1.48 µM
CC50 (MDA-MB-468): 6.7 µM
